# Assay results reported in the supplement of paper PMC10307832.
# How the values were obtained:
# Experiment in all cases: relative viability (nuclei count vs DMSO), 5 days (fraction); higher = more cells survive
# [1] = tested on: LK-2
# Outline: (§1)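 Lung cancer cell lines were pin-tool dosed in 1536-well plates on the day after seeding, with either a lone drug or a fixed anchor-drug dose plus five library-drug doses (not always all listed) in √10 steps. Nuclei were counted on 4× images after 5 days. Relative viability is the ratio of treated-well to vehicle-well nuclei counts, with each value a median of duplicate plates.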
# [2] = tested on: NCI-H1792
# Outline: as §1
# [3] = tested on: EMC-BAC-2
# Outline: as §1
# [4] = tested on: SW 1573
# Outline: as §1
# [5] = tested on: SK-LU-1
# Outline: as §1
# [6] = tested on: NCI-H727
# Outline: as §1
# [7] = tested on: HOP-62
# Outline: as §1
# [8] = tested on: NCI-H2009
# Outline: as §1
# [9] = tested on: NCI-H3122
# Outline: as §1
# [10] = tested on: NCI-H596
# Outline: as §1
# [11] = tested on: NCI-H2228
# Outline: as §1
# [12] = tested on: LXF-289
# Outline: as §1
# [13] = tested on: LU99A
# Outline: as §1
# [14] = tested on: A-427
# Outline: as §1
# [15] = tested on: SK-MES-1
# Outline: as §1
# [16] = tested on: NCI-H1793
# Outline: as §1
# [17] = tested on: NCI-H1944
# Outline: as §1
# [18] = tested on: SW 900
# Outline: as §1
# [19] = tested on: COR-L23
# Outline: as §1
# [20] = tested on: ABC-1
# Outline: as §1
# [21] = tested on: NCI-H1993
# Outline: as §1
# [22] = tested on: PC-3 [JPC-3]
# Outline: as §1
# [23] = tested on: HARA
# Outline: as §1
# [24] = tested on: NCI-H2170
# Outline: as §1
compound,measurement,setting,value
C[C@@H]1CN(CC(=O)Nc2ccc3c(c2)Cc2cccc(-c4cc(=O)cc(N5CCOCC5)o4)c2S3)C[C@H](C)O1 + CCNC(=O)c1noc(-c2cc(C(C)C)c(O)cc2O)c1-c1ccc(CN2CCOCC2)cc1 [Luminespib] (partner 0.01 µM),relative viability,[1]; first compound 0.1265 µM,0.202
same,relative viability,[1]; first compound 0.4 µM,0.24
same,relative viability,[1]; first compound 4 µM,0.188
same,relative viability,[2]; first compound 0.04 µM,0.385
same,relative viability,[2]; first compound 0.1265 µM,0.493
same,relative viability,[2]; first compound 0.4 µM,0.399
same,relative viability,[2]; first compound 4 µM,0.333
same,relative viability,[3]; first compound 0.04 µM,1.28
same,relative viability,[3]; first compound 0.1265 µM,1.17
same,relative viability,[3]; first compound 0.4 µM,1.08
same,relative viability,[3]; first compound 4 µM,1.19
same,relative viability,[4]; first compound 0.04 µM,0.215
same,relative viability,[4]; first compound 0.1265 µM,0.386
same,relative viability,[4]; first compound 0.4 µM,0.207
same,relative viability,[4]; first compound 4 µM,0.366
same,relative viability,[5]; first compound 0.04 µM,0.222
same,relative viability,[5]; first compound 0.1265 µM,0.203
same,relative viability,[5]; first compound 0.4 µM,0.23
same,relative viability,[5]; first compound 4 µM,0.167
same,relative viability,[6]; first compound 0.04 µM,0.362
same,relative viability,[6]; first compound 0.1265 µM,0.603
same,relative viability,[6]; first compound 0.4 µM,0.37
same,relative viability,[6]; first compound 4 µM,0.388
same,relative viability,[7]; first compound 0.04 µM,0.917
same,relative viability,[7]; first compound 0.1265 µM,0.898
same,relative viability,[7]; first compound 0.4 µM,0.92
same,relative viability,[7]; first compound 4 µM,0.907
same,relative viability,[8]; first compound 0.04 µM,1.01
same,relative viability,[8]; first compound 0.1265 µM,0.995
same,relative viability,[8]; first compound 0.4 µM,0.983
same,relative viability,[8]; first compound 4 µM,0.804
same,relative viability,[9]; first compound 0.04 µM,0.0752
same,relative viability,[9]; first compound 0.1265 µM,0.102
same,relative viability,[9]; first compound 0.4 µM,0.0706
same,relative viability,[9]; first compound 4 µM,0.0744
same,relative viability,[10]; first compound 0.04 µM,1.16
same,relative viability,[10]; first compound 0.1265 µM,1.18
same,relative viability,[10]; first compound 0.4 µM,0.921
same,relative viability,[10]; first compound 4 µM,0.964
same,relative viability,[11]; first compound 0.04 µM,0.15
same,relative viability,[11]; first compound 0.1265 µM,0.128
same,relative viability,[11]; first compound 0.4 µM,0.171
same,relative viability,[11]; first compound 4 µM,0.133
same,relative viability,[12]; first compound 0.04 µM,0.657
same,relative viability,[12]; first compound 0.1265 µM,0.645
same,relative viability,[12]; first compound 0.4 µM,0.714
same,relative viability,[12]; first compound 4 µM,0.73
same,relative viability,[13]; first compound 0.04 µM,0.304
same,relative viability,[13]; first compound 0.1265 µM,0.192
same,relative viability,[13]; first compound 0.4 µM,0.26
same,relative viability,[13]; first compound 4 µM,0.231
same,relative viability,[14]; first compound 0.1265 µM,0.884
same,relative viability,[14]; first compound 0.4 µM,1.02
same,relative viability,[14]; first compound 4 µM,1.02
same,relative viability,[15]; first compound 0.04 µM,0.659
same,relative viability,[15]; first compound 0.1265 µM,0.764
same,relative viability,[15]; first compound 0.4 µM,0.664
same,relative viability,[15]; first compound 4 µM,0.475
same,relative viability,[16]; first compound 0.04 µM,0.141
same,relative viability,[16]; first compound 0.1265 µM,0.177
same,relative viability,[16]; first compound 0.4 µM,0.164
same,relative viability,[16]; first compound 4 µM,0.135
same,relative viability,[17]; first compound 0.04 µM,0.676
same,relative viability,[17]; first compound 0.1265 µM,0.729
same,relative viability,[17]; first compound 0.4 µM,0.938
same,relative viability,[17]; first compound 4 µM,0.824
same,relative viability,[18]; first compound 0.04 µM,0.166
same,relative viability,[18]; first compound 0.1265 µM,0.165
same,relative viability,[18]; first compound 0.4 µM,0.169
same,relative viability,[18]; first compound 4 µM,0.178
same,relative viability,[19]; first compound 0.04 µM,0.793
same,relative viability,[19]; first compound 0.1265 µM,0.705
same,relative viability,[19]; first compound 0.4 µM,0.729
same,relative viability,[19]; first compound 4 µM,0.458
same,relative viability,[20]; first compound 0.1265 µM,0.64
same,relative viability,[20]; first compound 0.4 µM,0.633
same,relative viability,[20]; first compound 4 µM,0.521
same,relative viability,[21]; first compound 0.04 µM,0.872
same,relative viability,[21]; first compound 0.1265 µM,0.913
same,relative viability,[21]; first compound 0.4 µM,0.621
same,relative viability,[21]; first compound 4 µM,0.762
same,relative viability,[22]; first compound 0.04 µM,0.744
same,relative viability,[22]; first compound 0.1265 µM,0.684
same,relative viability,[22]; first compound 0.4 µM,0.728
same,relative viability,[22]; first compound 4 µM,0.605
same,relative viability,[23]; first compound 0.1265 µM,0.675
same,relative viability,[23]; first compound 0.4 µM,0.471
same,relative viability,[23]; first compound 4 µM,0.89
same,relative viability,[24]; first compound 0.04 µM,0.661
same,relative viability,[24]; first compound 0.1265 µM,0.67
same,relative viability,[24]; first compound 0.4 µM,0.677
same,relative viability,[24]; first compound 4 µM,0.86
